Source: US7968556B2, “Heteroaryl compounds, compositions thereof, and methods of treatment therewith” (Signal Pharmaceuticals, LLC, priority 2006, dated 2011)

Legend:
mTOR = mTOR (Homo sapiens, UniProt P42345); assay: mTOR HTR-FRET Assay; assay type: biochemical
Experimental: The following is an example of an assay that can be used to determine the mTOR inhibitory activity of a test compound. Reagents are prepared as follows:
“Simple TOR buffer” (used to dilute high glycerol TOR fraction): 10 mM Tris pH 7.4, 10 mM NaCl, 0.1% Tween-20, 1 mM DTT (from 1M stock frozen at −20° C. just prior to use). For convenience a large quantity of “Simple TOR buffer” w/o DTT can be stored at 4° C. It can be brought to room temperature and DTT added just prior to dilution of TOR fraction.
5XKB/5XMn/5×ATP solution (used to dilute substrate GST-p70S6kin 81 a.a. just prior to use) (40 ml screen quantity shown):
Enzyme solution: Dilute TOR fraction 1:14 in “Simple TOR Buffer”. For current lot that is 640 μg/ml TOR fraction diluted 14× to yield 45.7 μg/ml TOR in buffer (i.e. 7.85 ml TOR pooled fraction+102.1 ml Simple TOR buffer=110 ml 14× diluted TOR fraction). Each Enzyme Lot must be QC'd prior to assay.
Substrate solution: This may be prepared just prior to assay if preferred. Dilute 5.3 mg/ml GST-p70S6kinase fragment stock to 3.5 μg/ml (97 nM) working stock in 5XKB/5XMn/5×ATP solution (i.e. 26.41 μL (5.3 mg/ml) GST-p70S6+40 ml 5XKB/5XMn/5×ATP=40 ml 3.5 μg/ml (97 nM)).
Assay Buffer (for dilution of Antibodies used in Antibody Detection Reagent):
Antibody Detection Reagent (this reagent should be made just prior to addition to Assay Plates):
Using PlateTrak program (Screen) or Matrix Pipettor (SAR), 19.5 μL of diluted TOR fraction is added to assay plate in all test, reference or positive control wells. 19.5 μL of “Simple TOR buffer” is added to all negative control wells. If treating multiple plates with the same compounds, can increase volume of enzyme to multiples of 19.5 μL in a tall 384 well polypropylene plate.
Using EP3, 0.5 μl of test, reference or control DMSO is added to each well with mixing. Plates are incubated for 30 minutes at room temperature.
Using PlateTrak program (Screen) or Matrix Pipettor (SAR) 5 μL of 5XKB/5XMn/5×ATP/5× substrate solution is added to each well of the assay plate to start the reaction. The solutions are mixed well and incubated for 2 hours at room temperature.
Using PlateTrak program (Screen) or Matrix Pipettor (SAR) 5 μL of 60 mM EDTA is added to stop the reaction. The solutions are mixed well and allowed to sit for 15-20 minutes before the next step.
Using PlateTrak program (Screen) or Matrix Pipettor (SAR) 10 μl of Antibody Detection Reagent is added. The solutions are mixes well and incubated for 5 hours to O/N to allow antibodies to form complexes with phosphorylated substrate.
Plates are read on AnalystHT using protocol Multi-Method protocol.

SMILES	IC50 (mTOR)	melting point
NC(=O)c1nc(-c2cccc(O)c2)nc2c1[nH]c(=O)n2-c1c(F)cccc1F [Compound 16, 9-(2,6-difluorophenyl)-2-(3-hydroxyphenyl)-8-oxo-8,9-dihydro-7H-purine-6-carboxamide]	0.1 to 5 µM	355 to 358 °C
NC(=O)c1nc(-c2cccc(O)c2)nc2c1[nH]c(=O)n2-c1cccc(F)c1 [Compound 28, 9-(3-fluorophenyl)-2-(3-hydroxyphenyl)-8-oxo-8,9-dihydro-7H-purine-6-carboxamide]	> 30 µM	> 375 °C
NC(=O)c1nc(-c2cccnc2)nc2c1[nH]c(=O)n2C1CCCCCC1 [Compound 17, 9-cycloheptyl-8-oxo-2-(pyridin-3-yl)-8-9-dihydro-7H-purine-6-carboxamide]	0.1 to 5 µM	–
COc1ccccc1-n1c(=O)[nH]c2c(C(N)=O)nc(C3CCN(Cc4ccccc4)CC3)nc21 [Compound 31, 2-(1-benzylpiperidin-4-yl)-9-(2-methoxyphenyl)-8-oxo-8,9-dihydro-7H-purine-6-carboxamide]	> 30 µM	–
COc1ccccc1-n1c(=O)[nH]c2c(C(N)=O)nc(-c3cccc(OC(F)(F)F)c3)nc21 [Compound 34, 9-(2-methoxphenyl)-8-oxo-2-(3-(trifluoromethoxy)phenyl)-8,9-dihydro-7H-purine-6-carboxamide]	> 30 µM	269 to 272 °C
NC(=O)c1nc(-c2cccc(O)c2)nc2c1[nH]c(=O)n2-c1ccc(Cl)cc1Cl [Compound 25, 9-(2,4-dichlorophenyl)-2-(3-hydroxyphenyl)-8-oxo-8,9-dihydro-7H-purine-6-carboxamide]	5.1 to 10 µM	375 to 377 °C
COc1ccccc1-n1c(=O)[nH]c2c(C(N)=O)nc(-c3ccccc3C(F)(F)F)nc21 [Compound 29, 9-(2-methoxyphenyl)-8-oxo-2-(2-(trifluoromethyl)phenyl)-8,9-dihydro-7H-purine-6-carboxamide]	> 30 µM	237 to 240 °C
COc1ccccc1-n1c(=O)[nH]c2c(C(N)=O)nc(C3CCCC3)nc21 [Compound 19, 2-cyclopentyl-9-(2-methoxyphenyl)-8-oxo-8,9-dihydro-7H-purine-6-carboxamide]	> 30 µM	244 to 246 °C
COc1ccccc1-n1cnc2c(C(N)=O)nc(-c3cccc(O)c3)nc21 [Compound 39, 2-(3-hydroxyphenyl)-9-(2-methoxyphenyl)-9H-purine-6-carboxamide]	10.1 to 20 µM	257 to 259 °C
COc1ccccc1-n1c(=O)[nH]c2c(C(N)=O)nc(-c3ccc(C(N)=O)cc3)nc21 [Compound 65, 2-(4-Carbamoylphenyl)-9-(2-methoxyphenyl)-8-oxo-8,9-dihydro-7H-purine-6-carboxamide]	–	> 350 °C
NC(=O)c1nc(-c2cccc(O)c2)nc2c1[nH]c(=O)n2-c1cccc2[nH]ccc12 [Compound 147, 2-(3-Hydroxyphenyl)-9-(1H-indol-4-yl)-8-oxo-8,9-dihydro-7H-purine-6-carboxamide]	–	> 260 °C
COc1ccc(-c2nc(C(N)=O)c3[nH]c(=O)n(-c4ccccc4OC)c3n2)cn1 [Compound 21, 9-(2-methoxyphenyl)-2-(6-methoxypyridin-3-yl)-8-oxo-8,9-dihydro-7H-purine-6-carboxamide]	10.1 to 20 µM	–
COc1ccccc1-n1c(=O)[nH]c2c(C(N)=O)nc(NC[C@H]3CCCN3)nc21 [Compound 113, (R)-9-(2-Methoxyphenyl)-8-oxo-2-(pyrrolidin-2-ylmethylamino)-8,9-dihydro-7H-purine-6-carboxamide]	–	155 to 157 °C
CC(C)c1ccccc1-n1c(=O)[nH]c2c(C(N)=O)nc(-c3cnc4[nH]ccc4c3)nc21 [Compound 136, 9-(2-Isopropylphenyl)-8-oxo-2-(1H-pyrrolo[2,3-b]pyridin-5-yl)-8,9-dihydro-7H-purine-6-carboxamide]	–	380 °C (dec.)
COc1ccccc1-n1c(=O)[nH]c2c(C(N)=O)nc(Nc3ccccc3O)nc21 [Compound 56, 2-(2-Hydroxyphenylamino)-9-(2-methoxyphenyl)-8-oxo-8,9-dihydro-7H-purine-6-carboxamide]	–	314 to 315 °C
NC(=O)c1nc(-c2ccc3nc[nH]c3c2)nc2c1[nH]c(=O)n2C1CCCCC1 [Compound 156, 2-(1H-benzo[d]imidazol-6-yl)-9-cyclohexyl-8-oxo-8,9-dihydro-7H-purine-6-carboxamide]	–	280 °C (dec.)
NC(=O)c1nc(-c2cccc(O)c2)nc2c1[nH]c(=O)n2-c1ccccc1Oc1ccccc1 [Compound 126, 2-(3-Hydroxyphenyl)-8-oxo-9-(2-phenoxyphenyl)-8,9-dihydro-7H-purine-6-carboxamide]	–	329 to 331 °C
NC(=O)c1nc(-c2cncc(Cl)c2)nc2c1[nH]c(=O)n2-c1ccccc1C(F)(F)F [Compound 103, 2-(5-Chloropyridin-3-yl)-8-oxo-9-(2-(trifluoromethyl)phenyl)-8,9-dihydro-7H-purine-6-carboxamide]	–	230 to 232 °C
NC(=O)c1nc(-c2cccc(O)c2)nc2c1[nH]c(=O)n2-c1ccccc1OC(F)(F)F [Compound 24, 2-(3-hydroxyphenyl)-8-oxo-9-(2-(trifluoromethoxy)phenyl)-8,9-dihydro-7H-purine-6-carboxamide]	5.1 to 10 µM	–
COc1ccccc1-n1c(=O)[nH]c2c(C(N)=O)nc(-c3ccncc3)nc21 [Compound 75, 9-(2-Methoxyphenyl)-8-oxo-2-(pyridin-4-yl)-8,9-dihydro-7H-purine-6-carboxamide]	–	318 to 320 °C
COc1ccccc1-n1c(=O)[nH]c2c(C(N)=O)nc(-c3cncc(F)c3)nc21 [Compound 30, 2-(5-fluoropyridin-3-yl)-9-(2-methoxyphenyl)-8-oxo-8,9-dihydro-7H-purine-6-carboxamide]	5.1 to 10 µM	–
NC(=O)c1nc(-c2cccc(O)c2)nc2c1[nH]c(=O)n2-c1ccc(C(F)(F)F)cc1 [Compound 22, 2-(3-hydroxyphenyl)-8-oxo-9-(4-(trifluoromethyl)phenyl)-8,9-dihydro-7H-purine-6-carboxamide]	> 30 µM	–
CC(C)c1ccccc1-n1c(=O)[nH]c2c(C(N)=O)nc(-c3ccc(-c4nc[nH]n4)cc3)nc21 [Compound 121, 2-(4-(1H-1,2,4-Triazol-3-yl)phenyl)-9-(2-isopropylphenyl)-8-oxo-8,9-dihydro-7H-purine-6-carboxamide]	–	368 °C
COc1ccccc1-n1c(=O)[nH]c2c(C(N)=O)nc(N[C@H]3CC[C@@H](O)CC3)nc21 [Compound 110, 2-(cis-4-Hydroxycyclohexylamino)-9-(2-methoxyphenyl)-8-oxo-8,9-dihydro-7H-purine-6-carboxamide]	–	295 to 297 °C
CC(C)c1ccccc1-n1c(=O)[nH]c2c(C(N)=O)nc(-c3cnc4nc[nH]c4c3)nc21 [Compound 135, 2-(1H-Imidazo[4,5-b]pyridin-6-yl)-9-(2-isopropylphenyl)-8-oxo-8,9-dihydro-7H-purine-6-carboxamide]	–	320 °C (dec.)
COc1ccccc1-n1c(=O)[nH]c2c(C(N)=O)nc(Nc3ccc(Cn4ccnc4)cc3)nc21 [Compound 111, 2-(4-((1H-Imidazol-1-yl)methyl)phenylamino)-9-(2-methoxyphenyl)-8-oxo-8,9-dihydro-7H-purine-6-carboxamide]	–	165 to 170 °C
COc1ccccc1-n1c(=O)[nH]c2c(C(N)=O)nc(Nc3cccc(O)c3)nc21 [Compound 45, 2-(3-Hydroxyphenylamino)-9-(2-methoxyphenyl)-8-oxo-8,9-dihydro-7H-purine-6-carboxamide]	–	190 to 191 °C
CC(C)c1ccccc1-n1c(=O)[nH]c2c(C(N)=O)nc(-c3ccc4[nH]ccc4c3)nc21 [Compound 139, 2-(1H-Indol-5-yl)-9-(2-isopropylphenyl)-8-oxo-8,9-dihydro-7H-purine-6-carboxamide]	–	310 °C (dec.)
NC(=O)c1nc(-c2cccc(O)c2)nc2c1[nH]c(=O)n2-c1ccccc1C(F)(F)F [Compound 58, 2-(3-Hydroxyphenyl)-8-oxo-9-(2-(trifluoromethyl)phenyl)-8,9-dihydro-7H-purine-6-carboxamide]	–	363 to 365 °C
